# Key:
# [1] = test system: Escherichia coli NBRC 3972; assay: Sterilizing (microorganism growth inhibiting) effect, viable bacterial count; assay type: cell-based; conditions: one hour after inoculation, room temperature, phosphate-buffered saline, vs control; FIG. 1, result in words
# Experimental: Escherichia coli (Escherichia coli NBRC 3972) was used as a test bacterium. Escherichia coli was inoculated onto a standard agar medium and cultured at 30° C. to 35° C. for 24 hours. After culturing, the bacterial count was adjusted to […] using saline, whereby a test bacterial solution was obtained. Phosphate-buffered saline and ergothioneine were mixed to prepare a test sample 1 (ergothioneine concentration: 100 ppm (0.01 wt %)). Phosphate-buffered saline and isoquercitrin were mixed to prepare a test sample 2 (isoquercitrin concentration: 100 ppm (0.01 wt %)). Phosphate-buffered saline, ergothioneine, and isoquercitrin were mixed to prepare a test sample 3 (ergothioneine concentration: 2.5 ppm (0.00025 wt %), isoquercitrin concentration: 100 ppm (0.01 wt %)). Phosphate-buffered saline, ergothioneine, and isoquercitrin were mixed to prepare a test sample 4 (ergothioneine concentration: 100 ppm (0.01 wt %), isoquercitrin concentration: 100 ppm (0.01 wt %)). Phosphate-buffered saline was used as control. A test sample (5 mL) was inoculated with a 0.05 mL test bacterial solution and left standing at room temperature. […] After culturing, the number of colonies formed was counted, and the viable bacterial count was calculated (n=3). The sterilizing effect (%) was determined from the viable bacterial count (average of n=3) using the following formula. […]
# [2] = test system: human β-defensin-1 (hBD-1); conditions: human immortalized keratinocyte cells (HaCaT cells); Patent Literature 1; cited from earlier work
# [3] = test system: human β-defensin-3 (hBD-3); conditions: human immortalized keratinocyte cells (HaCaT cells); Patent Literature 1; cited from earlier work
# [4] = test system: Staphylococcus aureus; conditions: Non-Patent Literature 1; cited from earlier work
# [5] = test system: Escherichia coli; conditions: Non-Patent Literature 1; cited from earlier work
SMILES,Sterilizing effect on Escherichia coli [1],expression level of mRNA in hBD-1 [2],expression level of mRNA in hBD-3 [3],inhibition of growth of Staphylococcus aureus [4],inhibition of growth of Escherichia coli [5]
C[N+](C)(C)[C@@H](Cc1c[nH]c(=S)[nH]1)C(=O)[O-] [L-ergothioneine],no sterilizing effect,increased,increased,–,–
O=c1c(O)c(-c2ccc(O)c(O)c2)oc2cc(O)cc(O)c12 [quercetin],–,–,–,inhibition of growth,inhibition of growth
